For one test, the system named is HFD-induced AD mice. Put plainly: Neurogenesis: NeuN/BrdU double staining in HFD-induced AD mice. It counts as in vivo. To be noted: 5 mg/kg, vs HFD-only. The protocol: In order to investigate the effect of TBG096 on promoting neuronal regeneration, animal experiments were carried out according to the method previously reported. Fifteen 4-week-old ICR male mice purchased from Zhejiang Academy of Medical Sciences (Hangzhou, China) were randomly divided into three groups, namely the (i) normal control group, (ii) HFD group, and (iii) HFD + TBG096 5 mg/kg group, and given a normal diet or high-fat diet for two months to construct the AD mouse model, respectively. After confirming the successful construction of the AD model, TBG096 was administered once a day at a dose of 5 mg/kg for 1 month, and soybean oil was used as a vehicle. BrdU was then injected into the mice at a dose of 100 mg/kg in four injections over two days, each 12 h apart. Administration of TBG096 was continued for 28 days. At the end of animal experiments, the mice were anesthetized and cardiac […]. The brains of mice were taken, fixed, and sectioned, and immunostaining was performed with NeuN and BrdU antibodies.
At the end of animal experiments, three mice in each group were taken for heart perfusion with cold PBS and 4% paraformaldehyde. After that, the brains of mice were fixed with 4% paraformaldehyde for 24 h and gradually dehydrated with 15% and 30% sucrose solutions for 48 h, respectively. […]

Test [1] deals with Wnt gene family (Wnt10b, Wnt5a, and Wnt1). Put plainly: Transcriptome sequencing and qRT-PCR of brain samples of HFD-induced AD mice. To be noted: GSEA-GO, qRT-PCR confirmed Wnt10b and Wnt5a. It counts as in vivo. The protocol:
Total RNA was extracted and quantified from 50 mg of the cerebral cortex using TRIzol reagent (Invitrogen, Carlsbad, CA, USA) and NanoDrop (Thermo Fisher Scientific, Waltham, MA, USA), respectively. Subsequently, 2.5 µg of RNA from each sample was reverse-transcribed using a HiFi-MMLV cDNA kit (Cowin Biotechnology Company, Beijing, China). Transcripts were quantified by PCR analysis performed with a CFX 96 Touch (Bio-Rad, Hercules, CA, USA) and SYBR Premixed EX Taq (Takara, Otsu, Japan). PCR was performed under the following conditions: 95 °C for 2 min, followed by 40 cycles, 94 °C for 15 s, 60 °C for 25 s, and 72 °C for 10 s. All results were normalized to the level of 18S RNA, and the relative mRNA transcription levels were estimated by 2^−ΔΔCT. The number of animal samples in each group was five, and all samples were run in triplicate, and their average values were calculated. The mouse primers of Wnt10b (NM_011718.2), Wnt5a (NM_001256224.2), and 18S RNA (NR_003278.3) were synthesized by Sangon Biotech Co., Ltd. (Shanghai, China), and their sequences are as follows: Wnt10b-sense: 5′-[…]-3′; antisense: 5′-[…]-3′. Wnt5a-sense: 5′-[…]-3′; antisense: 5′-[…]-3′. 18S-sense: 5′-[…]-3; antisense: 5′-[…]-3′.
After extracting total RNA (5 µg) from cerebral cortex samples, mRNA was purified using Dynabeads Oligo(dT) (Thermo Fisher, Waltham, MA, USA), involving two purification steps. […]
Background: In qPCR the cycle at which signal appears reflects the starting amount.

Structures are written as SMILES.

`O=C(SCCCCCCSCCCC(F)(F)F)c1cccc(O)c1O` [TBG096]: in the test with HFD-induced AD mice, the “number of NeuN+ and BrdU+ neurons in the cerebral cortex” value is reported as “increased numbers”; the “number of newborn neurons in the hippocampus” value was “elevated”. Besides, in test [1], the “expression of the Wnt gene family (Wnt10b, Wnt5a, and Wnt1)” value is “enhancing the expression”.
